Results from patent US7468391B2, “Methods for treating retinoid responsive disorders using selective inhibitors of CYP26A and CYP26B” (Allergan, Inc., priority 2003, dated 2008).

Biological target: T1, RAR β (Homo sapiens, UniProt P10826)
T1 sequence (P10826 1-455): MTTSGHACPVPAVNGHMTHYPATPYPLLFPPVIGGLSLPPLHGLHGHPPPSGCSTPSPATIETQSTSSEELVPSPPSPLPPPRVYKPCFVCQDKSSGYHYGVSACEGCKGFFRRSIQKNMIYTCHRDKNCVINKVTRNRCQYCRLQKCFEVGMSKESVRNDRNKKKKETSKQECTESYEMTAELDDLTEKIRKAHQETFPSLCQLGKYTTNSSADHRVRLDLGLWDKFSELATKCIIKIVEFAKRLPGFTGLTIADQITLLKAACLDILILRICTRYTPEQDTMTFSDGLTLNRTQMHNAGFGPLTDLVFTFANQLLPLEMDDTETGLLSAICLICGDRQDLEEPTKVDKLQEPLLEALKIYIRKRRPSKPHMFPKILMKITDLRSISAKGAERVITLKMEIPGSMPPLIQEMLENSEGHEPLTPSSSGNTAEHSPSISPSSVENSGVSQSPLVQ
Test: RAR β EC50/(efficacy)
Type: cell-based
Details: Table 3

Row | SMILES | RAR β (EFFICACY)
1 | CN(C1CC1)C1CCC(C)(C)c2cc(C#Cc3ccc(C(C)(C)C(=O)O)cc3)ccc21 (centres unmarked) [AGN 198790] | < 5
2 | CN(Cc1cccc(C#Cc2ccc(/C=C/C(=O)O)cc2)c1)C1CC1 [AGN 199713] | 25
